We go through eight compounds from patent publication US20040171062A1, “Methods for the design of molecular scaffolds and ligands” (Plexxikon, Inc., priority 2002, published 2004).

What all share (assay type): biochemical
One test has as its target T1, Pyk2 (Homo sapiens, UniProt Q14289).
T1 construct: the Pyk2 was the kinase domain-(His)6 fusion; (His)6 (C); made in house; host or cells: E. coli BL21
Kind of test: Pyk-2 inhibitory activity (kinase ELISA, poly(Glu:Tyr)).

The next test has as its target T2, PIM-1 (Homo sapiens, UniProt P11309).
T2 construct: expressing PIM-1 kinase domain (29-313) was suspended; made in house; host or cells: E. coli BL21(DE3)pLysS
Kind of test: PIM-1 kinase activity assay (MBP substrate, 33P-ATP FlashPlate).

Test [1] has as its target T3, Pyk2 kinase domain residues 419 to 691 (Homo sapiens, UniProt Q14289).
T3 construct: PYK2 kinase domain I420-M691; hexa-histidine (thrombin-cleavable, pET15S; leaves GSHM before I420) (N, cleaved yes); made in house; host or cells: E. coli BL21 (DE3) pLysS
Kind of test: Pyk2 kinase domain AlphaScreen activity and inhibition by ATP analogs. The settings on record: Pyk2 at 8 ng/well, ATP at 10 uM; for IC50: fit y = ((Vmax*x^n)/(K^n + x^n)) + Y2; for effect on PYK2: in the concentration tested. How it is done:
Inhibition by ATP analogs was tested with Pyk2 at 8 ng/well and ATP at 10 uM.
On the technique in general: In Alpha technology, singlet oxygen from a donor bead excites a nearby acceptor bead.

The target of test [2] is T3, Pyk2 kinase domain residues 419 to 691. Described as above.

T3 sequence (Q14289 420-691): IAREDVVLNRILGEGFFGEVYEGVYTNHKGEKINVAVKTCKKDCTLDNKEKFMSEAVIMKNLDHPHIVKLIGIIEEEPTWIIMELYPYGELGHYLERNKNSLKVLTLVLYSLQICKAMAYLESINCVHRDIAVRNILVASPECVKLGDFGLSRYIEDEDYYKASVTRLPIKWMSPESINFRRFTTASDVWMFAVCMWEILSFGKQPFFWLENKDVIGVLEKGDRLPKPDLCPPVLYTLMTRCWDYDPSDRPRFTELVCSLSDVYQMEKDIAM
T2 sequence (P11309 29-313): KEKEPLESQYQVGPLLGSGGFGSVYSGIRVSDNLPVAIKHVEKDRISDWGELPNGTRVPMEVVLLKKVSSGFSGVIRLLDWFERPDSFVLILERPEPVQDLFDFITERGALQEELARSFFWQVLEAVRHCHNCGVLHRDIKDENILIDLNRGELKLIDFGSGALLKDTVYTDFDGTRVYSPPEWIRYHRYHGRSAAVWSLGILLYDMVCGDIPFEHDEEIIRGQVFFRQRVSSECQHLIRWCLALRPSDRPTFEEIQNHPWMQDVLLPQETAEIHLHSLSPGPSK
T1 sequence (Q14289 425-683 limits assumed): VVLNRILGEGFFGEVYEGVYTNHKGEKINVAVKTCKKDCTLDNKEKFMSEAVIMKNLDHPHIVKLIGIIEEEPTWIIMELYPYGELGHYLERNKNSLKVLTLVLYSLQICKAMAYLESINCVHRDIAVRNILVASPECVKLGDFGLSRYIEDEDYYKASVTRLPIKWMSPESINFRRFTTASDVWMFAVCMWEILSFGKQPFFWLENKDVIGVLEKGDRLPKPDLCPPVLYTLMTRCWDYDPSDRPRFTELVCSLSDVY
Protocol for PIM-1: Inhibitory or exhitory activity of compounds binding to PIM-1 was determined using a kinase assay.
An assay for kinase activity that can be used for PIM kinases, e.g., PIM-1, can be performed according to the following procedure using purified kinase using myelin basic protein (MBP) as substrate.
Coat scintillation plate suitable for radioactivity counting (e.g., FlashPlate from Perkin-Elmer, such as the SMP200(basic)) with kinase+MBP mix (final 100 ng+300 ng/well) at 90-μL/well in kinase buffer. Add compounds at 1 μL/well from 10 mM stock in DMSO. Positive control wells are added with 1 μL of DMSO. Negative control wells are added with 2 μL of EDTA stock solution. ATP solution (10 μL) is added to each well to provide a final concentration of cold ATP is 2 μM, and 50 nCi ATPγ[^33P]. The plate is shaken briefly, and a count is taken to initiate count (IC) using an apparatus adapted for counting with the plate selected, e.g., Perkin-Elmer Trilux. Store the plate at 37° C. for 4 hrs, then count again to provide final count (FC).
Net 33P incorporation (NI) is calculated as: NI=FC−IC.
The effect of the present of a test compound can then be calculated as the percent of the positive control as: % PC=[(NI−NC)/(PC−NC)]×100, where NC is the net incorporation for the negative control, and PC is the net incorporation for the positive control. […]

Usually IC50 stands for the midpoint of a concentration-inhibition curve. In general, inhibition refers to the percentage by which the read-out fell short of the control. On to `c1cnc2[nH]ccc2c1` [Formula III, R1=R2=R3=R4=R5=H], for which the IC50 against Pyk2 was over 200 µM; at PIM-1 (read-out: IC50, inhibitory activity against PIM-1) it was over 200 µM. The inhibition at 200 µM at PIM-1 (at 200 μM concentration) was found to be 8%.

As to `Nc1ncnc2c1ncn2[C@@H]1O[C@H](COP(=O)(O)OP(=O)(O)O)[C@@H](O)[C@H]1O` [ADT], in test [1], the “affinity with Pyk2” value was determined as 14 µM and the IC50 is 14.9 µM.

On to `Nc1ncnc2c1ncn2[C@@H]1O[C@H](COP(=O)(O)OP(=O)(O)CP(=O)(O)O)[C@@H](O)[C@H]1O` [AMPPCP], for which, in test [1], the IC50 is 7690 µM and the “effect on PYK2” value was “little effect”.

On to `Nc1ncnc2c1ncn2[C@@H]1O[C@H](CO)[C@@H](O)[C@H]1O` [Adenosine], for which the “effect on PYK2” value in test [1] is “little effect”.

On to `Nc1ncnc2c1ncn2C1OC(COP(=O)(O)OP(=O)(O)NP(=O)(O)O)C(O)C1O` (centres unmarked) [AMPPNP, 5′-adenylylimidodiphosphate], for which the IC50 in test [1] was 18.1 µM.

On to `Nc1ncnc2c1ncn2[C@@H]1O[C@H](COP(=O)(O)O)[C@@H](O)[C@H]1O` [AMP], for which the half-inhibitory concentration (IC50) in test [1] turned out to be 80.2 µM.

The term Kd denotes the free concentration of one partner at which half of the binding sites on the other are occupied at equilibrium, for simple one-to-one binding. Low values mean higher affinity, high ones lower affinity. In the case of `Nc1ncnc2c1ncn2[C@@H]1O[C@H](COP(=O)(O)OP(=O)(O)OP(=O)(O)O)[C@@H](O)[C@H]1O` [ATP], the “K (Pyk2 activity)” value in test [2] (Pyk2 8 ng/well, 384-well plate, fit y = (Vmax*x)/(K + x)) came to 7.37 µM. Besides, the affinity in test [2] (Pyk2 at 8 ng/well in 384-well plate, AlphaScreen), expressed as Kd, was 7.34 µM.

As to `Nc1ncnc2c1ncn2[C@@H]1O[C@H](COP(=O)(O)OP(=O)(O)OP(O)(O)=S)[C@@H](O)[C@H]1O` [ATP-g-S], in test [1], the “affinity with Pyk2” value is 14 µM and the IC50 worked out at 13.6 µM.
